Laboratory results: US10220033B2, “Substituted benzoxazepine for cancer therapy” (University of Cape Town, priority 2014, dated 2019)

System: Cytochrome C release
Experiment: Mitochondrial and cytoplasmic protein extraction, Cytochrome C Western Blot
Type: cell-based
Settings: varying concentrations, 24 hours (FIG. 27)
Experimental: Cells were grown in 10 cm plates and treated with varying concentrations of Compound A for 24 hours. Cells were lysed in subcellular fractionation buffer (250 mM sucrose, 20 mM HEPES, 10 mM KCl, 1.5 mM MgCl2, 1 mM EDTA, 1 mM EGTA, 1 mM DTT and 1× complete protease inhibitor cocktail (Roche)), passed through a 25G needle and incubated on ice for 20 minutes. The nuclear pellet was obtained after centrifugation at 720 g for 5 minutes. The supernantant was further centrifuged at 10,000 g and the resulting supernatant used as the cytoplasmic fraction. The pellet containing the mitochondrial fraction was washed in subcellular fractionation buffer and passed through a 25G needle. The mitochondrial fraction was pelleted at 10,000 g and resuspended in RIPA buffer. Western Blot analysis was performed using a mouse anti-Cytochrome C antibody (BD Pharmingen, San Diego, Calif.), and anti-β-tubulin (H235) (sc-9104, Santa Cruz) and anti-Pereroxiredoxin-3 (PRDX-3) (P1247, Sigma) antibodies were used as protein loading controls for cytoplasmic and mitochondrial fractions, respectively.

CN(C)CCCn1c(N)c(-c2nc3ccccc3[nH]2)c2nc3ccccc3nc21 [Compound A, 3-(1H-benzimidazol-2-yl)-1-(3-dimethylaminopropyl)pyrrolo[5,4-b]quinoxalin-2-amine]
release of Cytochrome C from the mitochondria into the cytoplasm: release of Cytochrome C from the mitochondria into the cytoplasm, in a dose-dependent manner
